We go through 7 molecules from PMC6010111, “Synthesis, biological evaluation and molecular modeling studies on novel quinonoid inhibitors of CDC25 phosphatases” (Journal of Enzyme Inhibition and Medicinal Chemistry, 2016).

For orientation: IC50 means the point on the concentration scale where inhibition reaches its midpoint.

Common to all, as to type: biochemical
The target of test [1] is T1, human CDC25A (recombinant GST-CDC25) (Homo sapiens, UniProt P30304).
T1 construct: made in house; host or cells: Escherichia coli BL21-DE3 pLys S
T1 sequence (P30304 1-524): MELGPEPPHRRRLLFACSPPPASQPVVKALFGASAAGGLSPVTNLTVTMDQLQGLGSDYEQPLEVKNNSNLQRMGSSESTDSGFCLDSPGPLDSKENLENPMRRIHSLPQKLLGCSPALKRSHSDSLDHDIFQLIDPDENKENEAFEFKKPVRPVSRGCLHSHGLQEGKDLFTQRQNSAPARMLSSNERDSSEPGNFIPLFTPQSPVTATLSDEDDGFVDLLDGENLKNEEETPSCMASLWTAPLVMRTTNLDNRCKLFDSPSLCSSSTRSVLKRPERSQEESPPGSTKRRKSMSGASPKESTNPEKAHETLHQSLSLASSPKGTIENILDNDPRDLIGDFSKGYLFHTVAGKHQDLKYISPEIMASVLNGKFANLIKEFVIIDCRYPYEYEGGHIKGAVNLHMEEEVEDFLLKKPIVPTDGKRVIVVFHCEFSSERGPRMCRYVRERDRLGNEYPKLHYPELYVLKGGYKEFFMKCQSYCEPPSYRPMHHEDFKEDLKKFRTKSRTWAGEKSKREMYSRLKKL
Description: CDC25A dephosphorylation assay with 3-O-methylfluorescein phosphate (fluorimetric). To be noted: for remaining activity at 100 µM: 100 µM compound, DMSO control = 100%, read-out: residual activity of CDC25A; for IC50: mean of triplicates ± SD. An excerpt: (§1) Human glutathione-S-transferase (GST)-Cdc25 recombinant enzymes were used to evaluate the inhibitory potential of compounds.
(§2) Recombinant human GST-CDC25 proteins were produced as previously described by Brault et al.[25] Briefly, the GST-tagged Cdc25s were expressed in the bacterial expression system Escherichia coli BL21-DE3 pLys S, transformed by a plasmidic vector (pGEX 2T) containing the sequences encoding full length CDC25. Production of recombinant proteins was induced via an IPTG induction system. Then, cells were lysed and centrifuged to recover the supernatant which was purified with a GSH-agarose column system, and recombinant GST-CDC25 proteins were eluted and collected in fractions. Activity, purity and protein concentration of the fractions were evaluated.
(§3) CDC25 enzymatic activity was measured by a dephosphorylation assay with 3-O methyl fluorescein phosphate as described. Briefly, the assay was performed in 96-well plates in buffer [50 mM Tris–HCl, 50 mM NaCl, 1 mM EDTA and 0.1% SAB, pH 8.1], 3-O-methylfluorescein phosphate was used as substrate. After 2 h at 30 °C, 3-O-methylfluorescein fluorescent emission was measured with a CytoFluor system (Perspective Applied Biosystems, Villebon-sur-Yvette, France; excitation filter: 475 nm; emission filter: 510 nm).
(§4) Assays were performed in triplicate, and the experiment was independently performed three times. The results are expressed as percentage of inhibition of CDC25 phosphatase activity in presence of the tested compounds (and compared to DMSO control). All compounds were tested at a 100 µM concentration. Naphtoquinone (20 µM) was used as positive reference inhibitor.
(§5) IC50 values for CDC25 inhibition were evaluated by in vitro fluorimetric assays and were determined with sigmoid curves plotted by using a non-linear approximation model based on the least square method (GraphPad Prism software, La Jolla, CA).

Test [2] deals with T2, human CDC25B (recombinant GST-CDC25) (Homo sapiens, UniProt P30305).
T2 construct: made in house; host or cells: Escherichia coli BL21-DE3 pLys S
T2 sequence (P30305 1-580): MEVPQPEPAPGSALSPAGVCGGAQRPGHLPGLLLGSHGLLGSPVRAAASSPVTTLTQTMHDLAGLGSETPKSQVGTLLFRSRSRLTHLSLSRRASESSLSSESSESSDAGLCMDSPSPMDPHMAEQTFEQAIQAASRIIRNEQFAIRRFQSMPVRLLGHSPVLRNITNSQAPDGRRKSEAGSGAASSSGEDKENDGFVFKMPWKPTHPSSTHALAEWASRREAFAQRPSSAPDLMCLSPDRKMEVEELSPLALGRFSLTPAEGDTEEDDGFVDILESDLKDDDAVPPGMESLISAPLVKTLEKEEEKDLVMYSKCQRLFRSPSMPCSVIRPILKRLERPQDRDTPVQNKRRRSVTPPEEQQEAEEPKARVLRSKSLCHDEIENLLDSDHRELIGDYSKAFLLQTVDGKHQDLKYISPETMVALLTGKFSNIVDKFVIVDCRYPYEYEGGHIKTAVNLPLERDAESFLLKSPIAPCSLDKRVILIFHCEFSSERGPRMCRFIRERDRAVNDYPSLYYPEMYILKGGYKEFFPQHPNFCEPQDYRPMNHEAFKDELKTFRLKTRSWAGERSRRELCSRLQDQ
Description: CDC25B dephosphorylation assay with 3-O-methylfluorescein phosphate (fluorimetric). The following applies: for remaining activity at 100 µM: 100 µM compound, DMSO control = 100%, read-out: residual activity of CDC25B; for IC50 / IC50 CDC25B: mean of triplicates ± SD.
Source text: as §1, §2, §3, §4, §5

Test [3] has as its target T3, human CDC25C (recombinant GST-CDC25) (Homo sapiens, UniProt P30307).
T3 construct: made in house; host or cells: Escherichia coli BL21-DE3 pLys S
T3 sequence (P30307 1-473): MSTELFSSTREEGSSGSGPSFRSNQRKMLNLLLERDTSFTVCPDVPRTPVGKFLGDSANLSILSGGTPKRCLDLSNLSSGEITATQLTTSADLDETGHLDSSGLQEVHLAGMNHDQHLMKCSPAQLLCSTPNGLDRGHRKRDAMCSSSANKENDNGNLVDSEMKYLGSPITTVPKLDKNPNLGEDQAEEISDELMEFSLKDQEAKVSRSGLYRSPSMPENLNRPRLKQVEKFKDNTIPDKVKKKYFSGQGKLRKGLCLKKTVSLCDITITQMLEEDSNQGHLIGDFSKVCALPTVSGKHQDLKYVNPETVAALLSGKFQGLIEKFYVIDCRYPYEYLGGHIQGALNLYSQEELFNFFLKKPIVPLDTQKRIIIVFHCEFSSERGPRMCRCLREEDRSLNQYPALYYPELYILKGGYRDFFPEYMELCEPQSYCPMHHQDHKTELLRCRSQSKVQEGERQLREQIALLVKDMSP
Kind of test: CDC25C dephosphorylation assay with 3-O-methylfluorescein phosphate (fluorimetric). The following applies: for remaining activity at 100 µM: 100 µM compound, DMSO control = 100%, read-out: residual activity of CDC25C; for IC50: mean of triplicates ± SD.
Source text: as §1, §2, §3, §4, §5

With `COCC1=CC(=O)C(C)=C([S@@+]([O-])c2ccc(C)cc2)C1=O` [Compound 2], the remaining activity at 100 µM in test [1], in test [2] and in test [3] was > 10% throughout.
As to `COC1=CC(=O)C=C([S@@+]([O-])c2ccc(C)cc2)C1=O` [Compound 1], the IC50 in test [1] is 2.64 ± 0.62 µM.
Consider `COC1=CC(=O)[C@]2(C)CC=C3CO[C@@H](c4ccccc4)CC3C2C1=O` (stereo partly drawn) [Compound 6], for which the remaining activity at 100 µM in test [1], in test [2] and in test [3] was > 10% in each case.
On to `COC1=CC(=O)[C@]2(C)CC=C3CO[C@@H](c4ccccc4)CC3[C@]2([S@@+]([O-])c2ccc(C)cc2)C1=O` (stereo partly drawn) [Compound 5], for which the concentration for half-maximal inhibition (IC50) came out at 2.53 ± 0.23 µM in test [1], 7.46 ± 2.17 µM in test [2] and 5.76 ± 0.42 µM in test [3].
Regarding `COC1=CC(=O)[C@]2(C)CC=C3CO[C@@H](c4ccoc4)CC3[C@]2([S@@+]([O-])c2ccc(C)cc2)C1=O` (stereo partly drawn) [Compound 4], the IC50 in test [1] was found to be 3.73 ± 1.53 µM; in test [2], 18.2 ± 1.68 µM; in test [3], 9.43 ± 1.25 µM. For the same molecule, the “IC50 CDC25B” value in test [2] was “double digit micromolar”.
Consider `COC1=CC(=O)[C@]2(C)CC=C3CO[C@@H](c4ccoc4)CC3C2[C@H]1O` (stereo partly drawn) [Compound 7], for which the remaining activity at 100 µM in test [1], in test [2] and in test [3] was > 10% each time.
Consider `CCOC1=CC(=O)C(C)=C([S@@+]([O-])c2ccc(C)cc2)C1=O` [Compound 3], for which the IC50 in test [1] is 3.19 ± 1.02 µM; in test [2], 11.1 ± 1.01 µM; in test [3], 5.41 ± 0.52 µM. Also, in test [2], the “IC50 CDC25B” value is given as “double digit micromolar”.
